In US6984664B2, “Tertiary amino compounds having opioid receptor affinity” (Euro-Celtique, S.A., priority 1999, dated 2006) one finds Ki data, which are given here for 1 molecule.

Assay type in all cases: binding
One test concerns the target delta opioid receptor (Homo sapiens, UniProt P41143). Description: Affinity at the δ receptor ([35S]GTPγS membrane assay). As to conditions: opioid receptor membranes, 30 min room temperature, read-out: calc Ki (nM) δ2. Here is the method:
(§1) Affinity at the μ, k and δ receptors for preferred compounds was obtained according to the following assays:
(§2) Mu, kappa or delta opioid receptor membrane solution was prepared by sequentially adding final concentrations of 0.075 μg/μl of the desired membrane protein, 10 μg/ml saponin, 3 μM GDP and 0.20 nM [^35S]GTPγS to binding buffer (100 mM NaCl, 10 mM MgCl2, 20 mM HEPES, pH 7.4) on ice. The prepared membrane solution (190 μl/well) was transferred to 96-shallow well polypropylene plates containing 10 μl of 20× concentrated stock solutions of agonist prepared in DMSO. Plates were incubated for 30 min at room temperature with shaking. Reactions were terminated by rapid filtration onto 96-well Unifilter GF/B filter plates (Packard) using a 96-well tissue harvester (Brandel) and followed by three filtration washes with 200 μl ice-cold binding buffer (10 mM NaH2PO4, 10 mM Na2HPO4, pH 7.4). Filter plates were subsequently dried at 50° C. for 2–3 hours. Fifty μl/well scintillation cocktail (MicroScint20, Packard) was added and plates were counted in a Packard Top-Count for 1 min/well.
(§3) Data were analyzed using the curve fitting functions in GraphPad PRISM™, v.

The target in another test is kappa opioid receptor (Homo sapiens, UniProt P41145). Put plainly: Affinity at the k receptor ([35S]GTPγS membrane assay). As to conditions: opioid receptor membranes, 30 min room temperature, read-out: calc Ki (nM) k. Here is the method: as §1, §2, §3
Chain of kappa opioid receptor (P41145 whole entry): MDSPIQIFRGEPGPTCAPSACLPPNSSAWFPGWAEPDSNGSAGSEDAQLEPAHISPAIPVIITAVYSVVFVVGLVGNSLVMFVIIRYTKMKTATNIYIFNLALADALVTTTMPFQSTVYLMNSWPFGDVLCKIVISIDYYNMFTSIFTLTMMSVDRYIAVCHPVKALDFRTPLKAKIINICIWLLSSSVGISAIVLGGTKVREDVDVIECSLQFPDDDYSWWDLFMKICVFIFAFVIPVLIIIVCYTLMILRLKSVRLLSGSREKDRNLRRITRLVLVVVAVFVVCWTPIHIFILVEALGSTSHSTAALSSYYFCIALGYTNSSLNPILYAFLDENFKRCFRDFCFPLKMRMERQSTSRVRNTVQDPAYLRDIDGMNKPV
Another test addresses Mu opioid receptor (Homo sapiens, UniProt P35372). Description: Affinity at the μ receptor ([35S]GTPγS membrane assay). As to conditions: opioid receptor membranes, 30 min room temperature, read-out: calc Ki (nM) μ. Here is the method: as §1, §2, §3

Chain of delta opioid receptor (P41143 whole entry): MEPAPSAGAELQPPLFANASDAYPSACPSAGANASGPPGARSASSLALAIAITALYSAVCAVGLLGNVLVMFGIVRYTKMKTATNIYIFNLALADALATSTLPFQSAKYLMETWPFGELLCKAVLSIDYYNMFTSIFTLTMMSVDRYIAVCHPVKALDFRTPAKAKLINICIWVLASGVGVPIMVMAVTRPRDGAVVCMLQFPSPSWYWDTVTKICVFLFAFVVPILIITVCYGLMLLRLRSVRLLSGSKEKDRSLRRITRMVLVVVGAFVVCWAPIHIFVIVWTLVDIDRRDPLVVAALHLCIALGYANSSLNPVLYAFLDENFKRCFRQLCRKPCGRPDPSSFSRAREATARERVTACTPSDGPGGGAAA
Chain of Mu opioid receptor (P35372 whole entry): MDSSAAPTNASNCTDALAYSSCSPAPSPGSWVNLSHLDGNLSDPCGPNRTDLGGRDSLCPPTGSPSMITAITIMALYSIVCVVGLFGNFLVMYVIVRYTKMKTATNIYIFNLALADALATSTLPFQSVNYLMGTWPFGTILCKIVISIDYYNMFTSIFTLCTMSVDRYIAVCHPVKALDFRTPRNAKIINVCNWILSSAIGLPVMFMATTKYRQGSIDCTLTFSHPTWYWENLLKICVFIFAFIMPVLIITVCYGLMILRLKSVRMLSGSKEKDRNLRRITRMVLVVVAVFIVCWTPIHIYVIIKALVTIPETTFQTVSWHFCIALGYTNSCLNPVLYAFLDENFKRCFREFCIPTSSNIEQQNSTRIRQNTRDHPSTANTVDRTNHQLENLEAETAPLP

Take `CCCCN(CCCC)CCN(Cc1ccccc1)C(=O)Cc1ccccc1` [1-[1-benzyl-1-(2-phenyl-1-oxo-ethyl)-amino]-2-dibutylamino-ethyl]: the figures for the Ki on delta opioid receptor, at kappa opioid receptor and on Mu opioid receptor were more than 10000 nM, 3500 nM and 40 nM, respectively.

A word on the Ki: it is a measure of affinity in units of concentration, obtained from inhibition or displacement.
